Assay results from ChEMBL document CHEMBL5465560, “Selectivity Literature for EUbOPEN Chemogenomic Library” (2024).
pIC50: −log10 of the molar value. One block for each compound: values may come before it.

Assays:
[1] = target: Muscarinic acetylcholine receptor M3 (Homo sapiens, UniProt P20309); experiment: Selectivity interaction (Panel of non-epigenetic targets (kinases, GPCRs, ion channels, and transporters, Eurofins) ) EUB0000271b CHRM3; conditions: at 1 µM
[2] = target: T1, Tyrosine-protein kinase Mer (Homo sapiens) (UniProt Q12866); experiment: Selectivity interaction (Ambit KINOMEscan and KiNATiv profiling in Jurkat cells) EUB0000090b MERTK; format: cell-based; conditions: at 1 µM
T1 sequence (whole entry): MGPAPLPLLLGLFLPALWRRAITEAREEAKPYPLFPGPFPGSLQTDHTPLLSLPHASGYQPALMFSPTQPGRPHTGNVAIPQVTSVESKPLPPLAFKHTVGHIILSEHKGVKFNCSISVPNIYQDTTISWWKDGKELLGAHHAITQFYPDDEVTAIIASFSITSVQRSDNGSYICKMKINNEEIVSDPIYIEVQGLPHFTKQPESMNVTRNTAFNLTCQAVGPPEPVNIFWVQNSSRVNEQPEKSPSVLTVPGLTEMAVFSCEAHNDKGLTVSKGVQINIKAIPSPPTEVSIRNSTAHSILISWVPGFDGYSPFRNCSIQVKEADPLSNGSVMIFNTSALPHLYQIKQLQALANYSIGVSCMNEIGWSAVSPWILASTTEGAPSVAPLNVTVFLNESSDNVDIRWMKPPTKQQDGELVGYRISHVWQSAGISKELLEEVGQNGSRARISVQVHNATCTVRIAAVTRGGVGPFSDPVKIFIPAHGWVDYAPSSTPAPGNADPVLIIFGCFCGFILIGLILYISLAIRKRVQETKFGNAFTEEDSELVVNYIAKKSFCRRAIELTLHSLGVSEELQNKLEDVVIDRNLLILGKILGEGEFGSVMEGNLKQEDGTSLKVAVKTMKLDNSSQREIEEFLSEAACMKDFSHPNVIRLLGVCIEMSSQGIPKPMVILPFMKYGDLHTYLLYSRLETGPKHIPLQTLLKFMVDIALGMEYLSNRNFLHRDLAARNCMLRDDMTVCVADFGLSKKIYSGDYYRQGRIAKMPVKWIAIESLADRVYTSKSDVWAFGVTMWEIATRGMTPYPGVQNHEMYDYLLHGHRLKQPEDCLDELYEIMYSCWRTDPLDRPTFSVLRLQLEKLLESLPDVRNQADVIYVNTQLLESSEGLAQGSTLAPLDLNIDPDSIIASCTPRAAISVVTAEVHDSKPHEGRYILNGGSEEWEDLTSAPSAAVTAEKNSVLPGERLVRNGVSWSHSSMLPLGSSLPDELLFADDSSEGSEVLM

[3] = target: Tyrosine-protein kinase BTK (Homo sapiens, UniProt Q06187); experiment: Selectivity interaction (ActivX KiNativ screen (ex vivo kinase selectivity in human PBMCs)) EUB0001619a BTK; format: cell-based; conditions: PBMC, at 1 µM
[4] = target: T2, Serine/threonine-protein kinase DCLK2 (Homo sapiens) (UniProt Q8N568); conditions: at 10 µM
T2 sequence (whole entry): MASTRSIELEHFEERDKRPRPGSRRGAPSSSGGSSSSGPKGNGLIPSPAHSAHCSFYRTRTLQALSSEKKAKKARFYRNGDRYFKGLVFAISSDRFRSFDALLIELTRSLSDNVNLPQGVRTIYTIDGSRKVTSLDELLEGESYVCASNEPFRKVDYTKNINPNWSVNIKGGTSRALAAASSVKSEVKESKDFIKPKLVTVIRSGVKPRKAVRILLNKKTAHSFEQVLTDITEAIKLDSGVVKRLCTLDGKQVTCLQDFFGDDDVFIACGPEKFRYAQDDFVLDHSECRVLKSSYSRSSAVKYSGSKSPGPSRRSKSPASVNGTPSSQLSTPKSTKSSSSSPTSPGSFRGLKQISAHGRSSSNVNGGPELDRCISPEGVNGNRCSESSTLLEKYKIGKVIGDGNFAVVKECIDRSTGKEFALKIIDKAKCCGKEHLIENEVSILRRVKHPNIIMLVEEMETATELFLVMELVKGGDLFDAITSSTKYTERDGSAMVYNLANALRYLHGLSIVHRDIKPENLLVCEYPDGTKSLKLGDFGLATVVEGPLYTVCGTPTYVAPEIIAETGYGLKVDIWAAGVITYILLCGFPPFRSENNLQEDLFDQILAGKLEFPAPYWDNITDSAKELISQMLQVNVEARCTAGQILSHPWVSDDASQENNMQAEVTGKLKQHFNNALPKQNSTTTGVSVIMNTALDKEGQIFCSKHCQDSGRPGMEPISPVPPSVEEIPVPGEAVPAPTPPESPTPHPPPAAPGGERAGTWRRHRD

[5] = target: Microtubule-associated serine/threonine-protein kinase 1 (Homo sapiens) (UniProt Q9Y2H9); experiment: Selectivity interaction (ActivX KiNativ screen (kinase selectivity in THP-1 cell lysates)) EUB0000639a MAST1; format: subcellular; conditions: lysate
[6] = target: Ribosomal protein S6 kinase alpha-3 (Homo sapiens, UniProt P51812); experiment: Selectivity interaction (ActivX KiNativ screen (kinase selectivity in THP-1 cell lysates)) EUB0000639a RPS6KA3; format: subcellular; conditions: lysate, at 0.01 µM
[7] = target: Mitogen-activated protein kinase 14 (Homo sapiens, UniProt Q16539); experiment: Selectivity interaction (ActivX KiNativ screen (kinase selectivity in THP-1 cell lysates)) EUB0000639a MAPK14; format: subcellular; conditions: lysate, at 5 µM
Aurora kinase A = Aurora kinase A (Homo sapiens, UniProt O14965); experiment: Selectivity interaction (Kinase panel (33PanQinase(R) Activity Assay)) EUB0000877a STK6
[8] = target: MAP kinase-interacting serine/threonine-protein kinase 1 (Homo sapiens) (UniProt Q9BUB5); experiment: Selectivity interaction (Kinase panel (Z-LYTE Assay)) EUB0001632a MKNK1; conditions: at 10 µM
Sequence of MAP kinase-interacting serine/threonine-protein kinase 1 (Homo sapiens) (Q9BUB5 whole entry, looked up): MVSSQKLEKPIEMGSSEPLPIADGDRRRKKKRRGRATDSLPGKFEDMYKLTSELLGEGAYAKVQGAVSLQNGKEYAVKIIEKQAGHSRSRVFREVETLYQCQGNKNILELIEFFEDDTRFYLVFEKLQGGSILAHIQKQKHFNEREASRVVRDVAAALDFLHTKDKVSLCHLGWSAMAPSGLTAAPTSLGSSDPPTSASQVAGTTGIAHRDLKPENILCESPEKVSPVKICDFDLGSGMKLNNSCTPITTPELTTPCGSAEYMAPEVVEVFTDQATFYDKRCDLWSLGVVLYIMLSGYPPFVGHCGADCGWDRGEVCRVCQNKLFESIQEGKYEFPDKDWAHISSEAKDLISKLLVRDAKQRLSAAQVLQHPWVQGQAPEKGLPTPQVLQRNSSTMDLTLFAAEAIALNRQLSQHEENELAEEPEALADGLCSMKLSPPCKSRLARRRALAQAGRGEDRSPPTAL

Sequence of Microtubule-associated serine/threonine-protein kinase 1 (Homo sapiens) (Q9Y2H9 whole entry, looked up): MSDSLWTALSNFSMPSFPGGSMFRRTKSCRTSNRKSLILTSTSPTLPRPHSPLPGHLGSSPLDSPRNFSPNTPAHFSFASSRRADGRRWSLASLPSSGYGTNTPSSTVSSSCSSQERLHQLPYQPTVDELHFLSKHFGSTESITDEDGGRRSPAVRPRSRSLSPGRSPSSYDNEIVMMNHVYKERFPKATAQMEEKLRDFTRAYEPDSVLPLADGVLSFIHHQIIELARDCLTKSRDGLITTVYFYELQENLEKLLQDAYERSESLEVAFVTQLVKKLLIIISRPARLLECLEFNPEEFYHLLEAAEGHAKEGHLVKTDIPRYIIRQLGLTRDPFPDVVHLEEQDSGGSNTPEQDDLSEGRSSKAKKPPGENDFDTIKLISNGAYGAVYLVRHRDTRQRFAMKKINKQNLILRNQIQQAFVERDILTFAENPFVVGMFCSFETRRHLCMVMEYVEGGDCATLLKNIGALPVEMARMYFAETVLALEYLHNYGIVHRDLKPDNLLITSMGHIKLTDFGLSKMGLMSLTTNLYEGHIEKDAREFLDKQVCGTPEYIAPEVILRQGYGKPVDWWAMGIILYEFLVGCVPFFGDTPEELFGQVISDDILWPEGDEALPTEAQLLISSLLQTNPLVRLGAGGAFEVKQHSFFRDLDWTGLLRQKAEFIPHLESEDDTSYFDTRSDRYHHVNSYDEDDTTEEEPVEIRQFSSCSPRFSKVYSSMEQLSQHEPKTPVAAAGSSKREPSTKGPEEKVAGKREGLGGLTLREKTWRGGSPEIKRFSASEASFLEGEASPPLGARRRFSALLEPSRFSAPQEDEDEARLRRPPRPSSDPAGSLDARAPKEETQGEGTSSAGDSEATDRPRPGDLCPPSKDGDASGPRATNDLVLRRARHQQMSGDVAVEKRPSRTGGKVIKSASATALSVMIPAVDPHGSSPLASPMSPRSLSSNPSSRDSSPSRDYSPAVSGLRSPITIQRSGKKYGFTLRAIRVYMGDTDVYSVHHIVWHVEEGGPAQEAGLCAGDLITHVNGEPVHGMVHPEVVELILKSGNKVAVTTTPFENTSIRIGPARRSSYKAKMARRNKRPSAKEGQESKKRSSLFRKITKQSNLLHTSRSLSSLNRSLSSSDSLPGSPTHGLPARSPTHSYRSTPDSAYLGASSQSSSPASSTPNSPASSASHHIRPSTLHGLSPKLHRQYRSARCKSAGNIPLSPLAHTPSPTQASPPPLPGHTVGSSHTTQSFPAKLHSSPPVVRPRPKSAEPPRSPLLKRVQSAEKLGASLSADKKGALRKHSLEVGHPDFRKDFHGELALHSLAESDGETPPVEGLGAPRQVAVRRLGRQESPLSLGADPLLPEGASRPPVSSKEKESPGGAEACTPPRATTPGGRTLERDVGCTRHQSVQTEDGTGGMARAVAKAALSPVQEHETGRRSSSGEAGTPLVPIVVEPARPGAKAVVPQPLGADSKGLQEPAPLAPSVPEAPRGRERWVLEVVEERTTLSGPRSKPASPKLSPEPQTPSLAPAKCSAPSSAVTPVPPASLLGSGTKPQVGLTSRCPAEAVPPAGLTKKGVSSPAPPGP
Sequence of Mitogen-activated protein kinase 14 (Q16539 whole entry): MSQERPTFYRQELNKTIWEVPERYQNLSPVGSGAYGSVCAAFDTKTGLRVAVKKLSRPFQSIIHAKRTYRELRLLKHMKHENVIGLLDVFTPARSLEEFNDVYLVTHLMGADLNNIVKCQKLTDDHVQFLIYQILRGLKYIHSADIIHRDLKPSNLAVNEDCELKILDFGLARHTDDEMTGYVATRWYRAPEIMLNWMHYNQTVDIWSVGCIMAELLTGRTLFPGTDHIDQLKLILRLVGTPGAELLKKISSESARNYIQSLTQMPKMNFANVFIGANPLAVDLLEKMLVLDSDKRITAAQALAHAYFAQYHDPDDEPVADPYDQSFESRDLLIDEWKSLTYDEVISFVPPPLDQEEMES
Sequence of Ribosomal protein S6 kinase alpha-3 (P51812 whole entry): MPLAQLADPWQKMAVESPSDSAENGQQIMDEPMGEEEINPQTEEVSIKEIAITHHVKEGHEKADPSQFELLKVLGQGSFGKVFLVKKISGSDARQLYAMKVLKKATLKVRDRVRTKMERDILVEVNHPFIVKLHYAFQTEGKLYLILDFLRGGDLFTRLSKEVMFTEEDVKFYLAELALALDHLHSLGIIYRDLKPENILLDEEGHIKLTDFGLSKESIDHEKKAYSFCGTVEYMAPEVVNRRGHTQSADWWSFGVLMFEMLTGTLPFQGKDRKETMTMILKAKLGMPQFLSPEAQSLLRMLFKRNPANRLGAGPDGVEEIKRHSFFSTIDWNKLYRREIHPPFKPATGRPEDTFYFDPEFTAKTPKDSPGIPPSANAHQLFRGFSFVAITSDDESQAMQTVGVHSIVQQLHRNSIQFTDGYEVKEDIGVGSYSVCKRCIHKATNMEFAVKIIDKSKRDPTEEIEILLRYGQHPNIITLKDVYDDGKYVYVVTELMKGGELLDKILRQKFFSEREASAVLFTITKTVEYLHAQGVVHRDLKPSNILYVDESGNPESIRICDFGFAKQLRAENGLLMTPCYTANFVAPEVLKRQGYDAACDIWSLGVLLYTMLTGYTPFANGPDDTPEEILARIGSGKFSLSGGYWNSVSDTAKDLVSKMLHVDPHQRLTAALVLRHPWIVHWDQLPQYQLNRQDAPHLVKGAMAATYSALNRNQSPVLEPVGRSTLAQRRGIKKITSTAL
Sequence of Tyrosine-protein kinase BTK (Q06187 whole entry): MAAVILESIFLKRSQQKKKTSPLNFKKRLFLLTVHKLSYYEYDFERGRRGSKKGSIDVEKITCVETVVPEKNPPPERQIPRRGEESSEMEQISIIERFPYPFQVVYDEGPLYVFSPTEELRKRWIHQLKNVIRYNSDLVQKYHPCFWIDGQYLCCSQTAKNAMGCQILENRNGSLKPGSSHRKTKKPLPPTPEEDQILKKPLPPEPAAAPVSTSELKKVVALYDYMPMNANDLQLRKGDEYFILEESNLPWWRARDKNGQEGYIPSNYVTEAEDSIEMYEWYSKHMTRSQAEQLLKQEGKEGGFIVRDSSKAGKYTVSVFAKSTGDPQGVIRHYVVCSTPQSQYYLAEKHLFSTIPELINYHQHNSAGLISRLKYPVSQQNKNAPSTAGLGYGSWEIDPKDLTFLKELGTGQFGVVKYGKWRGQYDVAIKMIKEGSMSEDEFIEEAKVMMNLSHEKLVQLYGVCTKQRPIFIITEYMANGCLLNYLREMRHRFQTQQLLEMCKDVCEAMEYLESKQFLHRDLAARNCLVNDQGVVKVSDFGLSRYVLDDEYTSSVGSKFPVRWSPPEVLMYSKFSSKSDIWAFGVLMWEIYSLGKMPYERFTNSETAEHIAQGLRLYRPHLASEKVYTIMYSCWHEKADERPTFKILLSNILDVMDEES
Sequence of Muscarinic acetylcholine receptor M3 (P20309 whole entry, looked up): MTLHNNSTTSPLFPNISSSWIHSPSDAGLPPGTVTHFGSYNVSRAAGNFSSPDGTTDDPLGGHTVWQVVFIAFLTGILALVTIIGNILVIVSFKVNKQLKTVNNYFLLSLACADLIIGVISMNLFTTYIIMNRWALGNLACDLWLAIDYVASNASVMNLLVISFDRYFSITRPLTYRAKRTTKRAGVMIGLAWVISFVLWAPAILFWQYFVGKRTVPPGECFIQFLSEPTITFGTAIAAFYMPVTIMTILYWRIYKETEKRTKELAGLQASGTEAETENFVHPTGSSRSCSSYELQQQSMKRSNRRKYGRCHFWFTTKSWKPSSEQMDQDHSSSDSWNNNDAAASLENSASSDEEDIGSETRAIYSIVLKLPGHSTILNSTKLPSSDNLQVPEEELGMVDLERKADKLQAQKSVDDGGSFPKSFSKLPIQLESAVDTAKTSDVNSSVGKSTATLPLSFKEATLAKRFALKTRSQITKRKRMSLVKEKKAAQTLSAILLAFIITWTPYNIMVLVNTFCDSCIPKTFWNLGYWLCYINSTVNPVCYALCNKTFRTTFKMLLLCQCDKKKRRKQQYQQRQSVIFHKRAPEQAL
Sequence of Aurora kinase A (O14965 whole entry): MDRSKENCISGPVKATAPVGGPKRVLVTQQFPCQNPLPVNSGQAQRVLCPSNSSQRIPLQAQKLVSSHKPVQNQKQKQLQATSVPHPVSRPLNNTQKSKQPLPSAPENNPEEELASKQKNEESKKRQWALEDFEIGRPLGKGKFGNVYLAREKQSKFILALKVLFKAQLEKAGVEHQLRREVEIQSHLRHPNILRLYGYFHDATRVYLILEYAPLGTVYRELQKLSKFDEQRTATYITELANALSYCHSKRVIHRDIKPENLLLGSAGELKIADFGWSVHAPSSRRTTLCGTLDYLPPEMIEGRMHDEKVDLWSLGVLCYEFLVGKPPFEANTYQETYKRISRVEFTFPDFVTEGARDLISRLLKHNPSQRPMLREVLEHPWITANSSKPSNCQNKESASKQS

SMILES: Cc1cc(C)cc([C@@H]2c3cc(C)ccc3NC(=O)CN2C(=O)c2ccc(Br)s2)c1
% of inhibition [1]: 12%

SMILES: CN(C)C/C=C/C(=O)Nc1ccc(C(=O)N2CCCC(Nc3ncc(Cl)c(-c4c[nH]c5ccccc45)n3)C2)cc1 (stereo not drawn)
% of control [2]: 61%

SMILES: N#Cc1cccc(-c2c[nH]c3ncnc(N4CCOCC4)c23)c1
% of inhibition [3]: 13%

SMILES: Cc1cc([C@@H](C)Nc2ccccc2C(=O)O)c2nc(N3CCOCC3)cc(=O)n2c1 [AZD-6482]
% of control [4]: 100%

% of inhibition ([5]; at 0.01 µM): -0.4%
% of inhibition ([5]; at 0.04 µM): -2.4%
% of inhibition ([5]; at 0.2 µM): -2.5%
% of inhibition ([5]; at 1 µM): -1.4%
% of inhibition ([5]; at 5 µM): -30.3%
% of inhibition [6]: 5%
% of inhibition [7]: -3.8%
SMILES: CC[C@@H]1[C@H](F)C(=O)N[C@@H]1COc1nccc2cc(C(N)=O)c(OC)cc12 [ZIMLOVISERTIB]

pIC50 (Aurora kinase A): < 5.00
SMILES: CCC(=O)N1CC[C@H](Nc2ncnc3c2CN(c2cnc(OC)c(C(F)(F)F)c2)CC3)C1 [LENIOLISIB]

% of control [8]: 2.99%
SMILES: Cn1cc(-n2cnc3c(NCc4nc5cc(Cl)c(Cl)cc5[nH]4)nc(N4CCOCC4)nc32)cn1
